Experiment: Topical treatment of patients with acute otitis externa with ivermectin lotion (informal trials, Examples 3-6)
Type: in vivo, human
Text: The otic composition of the present invention described above is applied into the external auditory canal and on the auricle of the affected ear. The lotion, gel, or ointment can be applied with an applicator into the external auditory canal by the patient or others. Preferably, the applicator has a smooth surface, for example, a glass rod, coated with the lotion, gel, or ointment. Although cotton swab can be used, precaution should be exercised, because cotton swab is rough and it can cause irritation to the epidermis of the external auditory canal, and cotton residue left in the ear canal can cause further complication of the condition. The composition in the form of liquid suspension can be dropped or sprayed into the external auditory canal. The otic composition can be packaged for proper dosing by the patients. Moreover, the otic composition can also be integrated into or applied on an absorbent material, such as a strip of cotton fabric or medical dressing, and then the absorbent material is inserted into the external auditory canal by a physician as needed.
Operating with informed consent of individuals, individuals were treated with the otic composition and the method of the present invention for treating otitis externa, as described in Examples 3 to 7.
A person presented with acute otitis externa, symptoms including pain, tenderness, and swelling of the right ear canal. […]

Substance: ivermectin
- effectiveness in treating otitis externa (otic composition containing ivermectin at a concentration as low as 0.075%): effective
- time until dramatic resolution of the symptoms (summary of Examples 3 through 6, otic composition containing 0.075% of ivermectin): ≤ 24 h
